# Results: PMC3639963, “A New Class of Small Molecule Inhibitor of BMP Signaling” (PLoS ONE, 2013)
# Experiments:
# Assay in all cases: Nanosyn kinase profiling
# Assay type in all cases: biochemical
# Conditions in all cases: read-out: Percentage inhibition; for inhibition at 0.1 µM: 0.1 µM inhibitor; for inhibition at 1 µM: 1 µM inhibitor
# [1] = target: T1, EPHA3 (Homo sapiens, UniProt P29320)
# T1 construct: purchased Nanosyn (enzymatic panel); SGC in-house recombinant human kinases (DSF panel); Invitrogen (ALK1-6)
# T1 sequence (P29320 21-983): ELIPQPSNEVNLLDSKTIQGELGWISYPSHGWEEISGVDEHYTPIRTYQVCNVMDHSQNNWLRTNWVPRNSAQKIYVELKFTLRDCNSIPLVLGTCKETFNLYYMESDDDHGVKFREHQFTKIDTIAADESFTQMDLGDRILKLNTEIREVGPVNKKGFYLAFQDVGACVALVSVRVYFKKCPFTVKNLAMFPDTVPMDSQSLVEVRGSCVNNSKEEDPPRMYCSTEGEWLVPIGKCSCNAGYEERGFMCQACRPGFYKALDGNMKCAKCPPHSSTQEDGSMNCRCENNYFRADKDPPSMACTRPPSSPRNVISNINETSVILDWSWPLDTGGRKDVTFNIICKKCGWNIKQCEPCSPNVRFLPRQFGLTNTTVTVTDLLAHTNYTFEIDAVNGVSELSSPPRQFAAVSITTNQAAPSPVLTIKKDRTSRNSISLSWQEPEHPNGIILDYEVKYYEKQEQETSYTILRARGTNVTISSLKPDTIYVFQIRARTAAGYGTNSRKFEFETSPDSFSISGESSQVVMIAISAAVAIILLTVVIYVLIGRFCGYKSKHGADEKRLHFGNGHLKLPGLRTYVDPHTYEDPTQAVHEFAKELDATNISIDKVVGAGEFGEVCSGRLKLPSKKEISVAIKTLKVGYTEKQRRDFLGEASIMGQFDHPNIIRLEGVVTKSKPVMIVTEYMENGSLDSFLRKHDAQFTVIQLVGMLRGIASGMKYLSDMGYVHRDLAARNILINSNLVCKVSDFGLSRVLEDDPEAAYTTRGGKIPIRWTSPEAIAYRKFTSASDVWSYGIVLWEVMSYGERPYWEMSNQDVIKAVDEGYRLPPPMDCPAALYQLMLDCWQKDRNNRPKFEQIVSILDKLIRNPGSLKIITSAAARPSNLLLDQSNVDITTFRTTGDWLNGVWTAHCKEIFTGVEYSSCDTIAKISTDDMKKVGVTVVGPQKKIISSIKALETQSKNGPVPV
# Outline: (§1)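 Percent inhibition of each kinase was measured with the inhibitor at 0.1 µM and at 1 µM, as part of a 200-kinase human selectivity panel.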
# [2] = target: T2, IKK-β (Homo sapiens, UniProt O14920)
# T2 construct: purchased Nanosyn (enzymatic panel); SGC in-house recombinant human kinases (DSF panel); Invitrogen (ALK1-6)
# T2 sequence (O14920 1-756): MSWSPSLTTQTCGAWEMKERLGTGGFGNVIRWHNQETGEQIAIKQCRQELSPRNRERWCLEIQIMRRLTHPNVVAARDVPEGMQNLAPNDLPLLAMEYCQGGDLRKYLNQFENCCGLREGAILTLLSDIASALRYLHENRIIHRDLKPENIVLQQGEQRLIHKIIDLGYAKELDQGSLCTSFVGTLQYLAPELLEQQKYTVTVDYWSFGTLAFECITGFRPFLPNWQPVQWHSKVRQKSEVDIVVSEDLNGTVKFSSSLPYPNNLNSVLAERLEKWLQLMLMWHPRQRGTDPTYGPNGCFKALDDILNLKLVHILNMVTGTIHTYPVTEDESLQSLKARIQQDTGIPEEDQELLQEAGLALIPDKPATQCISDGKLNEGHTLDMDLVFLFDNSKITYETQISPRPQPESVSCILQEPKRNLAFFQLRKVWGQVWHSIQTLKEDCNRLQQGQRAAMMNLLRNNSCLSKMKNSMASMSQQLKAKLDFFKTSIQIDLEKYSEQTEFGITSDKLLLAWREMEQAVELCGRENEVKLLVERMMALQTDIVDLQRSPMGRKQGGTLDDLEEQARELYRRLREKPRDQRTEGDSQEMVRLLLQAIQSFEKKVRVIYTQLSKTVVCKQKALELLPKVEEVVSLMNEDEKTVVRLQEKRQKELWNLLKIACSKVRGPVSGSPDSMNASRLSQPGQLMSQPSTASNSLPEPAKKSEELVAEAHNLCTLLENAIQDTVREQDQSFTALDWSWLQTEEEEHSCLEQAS
# Outline: as §1
# [3] = target: T3, IRR (Homo sapiens, UniProt P14616)
# T3 construct: purchased Nanosyn (enzymatic panel); SGC in-house recombinant human kinases (DSF panel); Invitrogen (ALK1-6)
# Outline: as §1
# [4] = target: T4, JAK2 (Homo sapiens, UniProt O60674)
# T4 construct: purchased Nanosyn (enzymatic panel); SGC in-house recombinant human kinases (DSF panel); Invitrogen (ALK1-6)
# Outline: as §1
# [5] = target: T5, MAPKAPK2 (Homo sapiens, UniProt P49137)
# T5 construct: purchased Nanosyn (enzymatic panel); SGC in-house recombinant human kinases (DSF panel); Invitrogen (ALK1-6)
# Outline: as §1
# [6] = target: T6, PIM3 (Homo sapiens, UniProt Q86V86)
# T6 construct: purchased Nanosyn (enzymatic panel); SGC in-house recombinant human kinases (DSF panel); Invitrogen (ALK1-6)
# Outline: as §1
# [7] = target: T7, PKCβ1 (Homo sapiens, UniProt P05771)
# T7 construct: purchased Nanosyn (enzymatic panel); SGC in-house recombinant human kinases (DSF panel); Invitrogen (ALK1-6)
# Outline: as §1
# [8] = target: T8, RSK2 (Homo sapiens, UniProt P51812)
# T8 construct: purchased Nanosyn (enzymatic panel); SGC in-house recombinant human kinases (DSF panel); Invitrogen (ALK1-6)
# Outline: as §1
# [9] = target: T9, TIE2 (Homo sapiens, UniProt Q02763)
# T9 construct: purchased Nanosyn (enzymatic panel); SGC in-house recombinant human kinases (DSF panel); Invitrogen (ALK1-6)
# Outline: as §1
# T4 sequence (O60674 whole entry): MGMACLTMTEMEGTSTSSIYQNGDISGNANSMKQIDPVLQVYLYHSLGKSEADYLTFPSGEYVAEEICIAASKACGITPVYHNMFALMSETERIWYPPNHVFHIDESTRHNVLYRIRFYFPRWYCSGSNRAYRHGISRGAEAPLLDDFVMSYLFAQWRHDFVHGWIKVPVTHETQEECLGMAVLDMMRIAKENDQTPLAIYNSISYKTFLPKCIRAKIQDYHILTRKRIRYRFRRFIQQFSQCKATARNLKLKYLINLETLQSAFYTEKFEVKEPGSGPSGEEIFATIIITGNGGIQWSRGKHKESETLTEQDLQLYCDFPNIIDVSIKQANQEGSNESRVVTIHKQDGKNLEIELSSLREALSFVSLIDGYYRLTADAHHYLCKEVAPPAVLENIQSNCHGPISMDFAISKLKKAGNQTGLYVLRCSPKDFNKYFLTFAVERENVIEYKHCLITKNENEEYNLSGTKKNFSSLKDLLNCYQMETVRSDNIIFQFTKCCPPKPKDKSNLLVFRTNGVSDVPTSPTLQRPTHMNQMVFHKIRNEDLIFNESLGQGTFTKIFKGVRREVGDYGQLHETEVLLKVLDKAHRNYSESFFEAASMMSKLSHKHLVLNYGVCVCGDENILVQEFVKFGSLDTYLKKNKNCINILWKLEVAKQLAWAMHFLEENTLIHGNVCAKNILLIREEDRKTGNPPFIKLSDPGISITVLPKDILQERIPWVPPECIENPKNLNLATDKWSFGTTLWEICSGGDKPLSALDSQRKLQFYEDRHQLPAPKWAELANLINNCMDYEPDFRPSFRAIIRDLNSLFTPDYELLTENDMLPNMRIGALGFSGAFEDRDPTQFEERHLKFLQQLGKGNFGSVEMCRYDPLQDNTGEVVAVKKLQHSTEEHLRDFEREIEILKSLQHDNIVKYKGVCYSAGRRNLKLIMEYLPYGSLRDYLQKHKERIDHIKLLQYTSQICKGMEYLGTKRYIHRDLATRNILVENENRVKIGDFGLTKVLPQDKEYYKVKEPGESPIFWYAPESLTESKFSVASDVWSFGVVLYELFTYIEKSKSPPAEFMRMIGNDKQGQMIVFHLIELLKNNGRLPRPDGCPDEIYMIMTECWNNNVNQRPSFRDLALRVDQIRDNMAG
# T9 sequence (Q02763 23-1124): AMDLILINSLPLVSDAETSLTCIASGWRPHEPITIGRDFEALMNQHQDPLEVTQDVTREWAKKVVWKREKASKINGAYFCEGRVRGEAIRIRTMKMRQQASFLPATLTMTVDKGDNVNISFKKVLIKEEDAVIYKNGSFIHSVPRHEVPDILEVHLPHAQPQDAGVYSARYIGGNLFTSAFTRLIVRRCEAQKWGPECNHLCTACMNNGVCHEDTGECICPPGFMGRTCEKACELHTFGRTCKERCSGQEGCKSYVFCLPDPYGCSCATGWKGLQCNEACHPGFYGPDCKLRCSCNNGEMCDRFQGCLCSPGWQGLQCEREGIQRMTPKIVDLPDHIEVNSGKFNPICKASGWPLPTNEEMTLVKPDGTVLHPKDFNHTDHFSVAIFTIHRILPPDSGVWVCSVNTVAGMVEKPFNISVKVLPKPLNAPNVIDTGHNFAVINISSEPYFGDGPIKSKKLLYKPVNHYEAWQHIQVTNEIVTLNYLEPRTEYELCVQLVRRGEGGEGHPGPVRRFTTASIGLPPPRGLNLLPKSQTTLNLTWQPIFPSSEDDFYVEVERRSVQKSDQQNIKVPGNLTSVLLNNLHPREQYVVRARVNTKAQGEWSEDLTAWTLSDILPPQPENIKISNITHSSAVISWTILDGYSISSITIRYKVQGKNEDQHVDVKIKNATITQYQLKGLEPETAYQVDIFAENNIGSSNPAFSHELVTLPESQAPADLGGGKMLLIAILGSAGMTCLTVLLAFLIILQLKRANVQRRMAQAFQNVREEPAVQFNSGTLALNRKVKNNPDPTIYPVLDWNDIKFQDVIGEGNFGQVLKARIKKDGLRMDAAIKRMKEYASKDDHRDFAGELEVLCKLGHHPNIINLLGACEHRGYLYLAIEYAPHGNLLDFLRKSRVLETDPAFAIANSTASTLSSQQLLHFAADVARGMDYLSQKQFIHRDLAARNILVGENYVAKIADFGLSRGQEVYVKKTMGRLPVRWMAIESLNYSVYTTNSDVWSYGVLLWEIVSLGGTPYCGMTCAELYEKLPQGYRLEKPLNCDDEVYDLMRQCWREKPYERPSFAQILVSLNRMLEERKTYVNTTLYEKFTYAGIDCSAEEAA
# T3 sequence (P14616 27-1297): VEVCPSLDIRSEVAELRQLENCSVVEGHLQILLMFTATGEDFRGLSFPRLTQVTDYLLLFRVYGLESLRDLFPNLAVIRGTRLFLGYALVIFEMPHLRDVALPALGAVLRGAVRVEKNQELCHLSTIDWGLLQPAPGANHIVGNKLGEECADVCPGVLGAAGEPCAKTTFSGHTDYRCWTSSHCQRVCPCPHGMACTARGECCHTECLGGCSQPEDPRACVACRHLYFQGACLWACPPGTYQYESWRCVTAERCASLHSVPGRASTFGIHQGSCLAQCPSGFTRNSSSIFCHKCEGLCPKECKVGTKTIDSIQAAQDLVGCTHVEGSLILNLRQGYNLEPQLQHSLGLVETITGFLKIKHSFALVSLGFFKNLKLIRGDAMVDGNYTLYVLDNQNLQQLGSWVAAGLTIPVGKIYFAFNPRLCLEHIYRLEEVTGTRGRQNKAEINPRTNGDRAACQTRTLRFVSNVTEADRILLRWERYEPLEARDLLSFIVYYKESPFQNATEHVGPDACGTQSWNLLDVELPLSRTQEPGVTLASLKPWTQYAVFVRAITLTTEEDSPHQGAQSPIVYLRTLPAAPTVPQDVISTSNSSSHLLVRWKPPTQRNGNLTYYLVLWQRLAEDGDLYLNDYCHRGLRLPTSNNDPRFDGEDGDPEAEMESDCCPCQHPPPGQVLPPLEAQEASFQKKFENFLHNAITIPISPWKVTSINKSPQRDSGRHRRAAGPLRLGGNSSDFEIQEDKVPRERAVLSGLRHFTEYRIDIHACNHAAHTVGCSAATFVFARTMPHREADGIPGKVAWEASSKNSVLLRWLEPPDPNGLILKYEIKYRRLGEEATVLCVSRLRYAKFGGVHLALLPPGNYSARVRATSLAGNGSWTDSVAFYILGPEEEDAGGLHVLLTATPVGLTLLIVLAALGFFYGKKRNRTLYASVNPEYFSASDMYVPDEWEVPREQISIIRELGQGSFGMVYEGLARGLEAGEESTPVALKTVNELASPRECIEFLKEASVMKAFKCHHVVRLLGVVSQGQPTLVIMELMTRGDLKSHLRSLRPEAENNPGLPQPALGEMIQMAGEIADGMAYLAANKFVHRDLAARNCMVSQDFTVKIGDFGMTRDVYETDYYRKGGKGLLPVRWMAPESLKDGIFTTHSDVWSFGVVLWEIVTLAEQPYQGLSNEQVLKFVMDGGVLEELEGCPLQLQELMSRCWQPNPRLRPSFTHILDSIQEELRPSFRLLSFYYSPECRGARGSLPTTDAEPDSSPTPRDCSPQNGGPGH
# T7 sequence (P05771 whole entry): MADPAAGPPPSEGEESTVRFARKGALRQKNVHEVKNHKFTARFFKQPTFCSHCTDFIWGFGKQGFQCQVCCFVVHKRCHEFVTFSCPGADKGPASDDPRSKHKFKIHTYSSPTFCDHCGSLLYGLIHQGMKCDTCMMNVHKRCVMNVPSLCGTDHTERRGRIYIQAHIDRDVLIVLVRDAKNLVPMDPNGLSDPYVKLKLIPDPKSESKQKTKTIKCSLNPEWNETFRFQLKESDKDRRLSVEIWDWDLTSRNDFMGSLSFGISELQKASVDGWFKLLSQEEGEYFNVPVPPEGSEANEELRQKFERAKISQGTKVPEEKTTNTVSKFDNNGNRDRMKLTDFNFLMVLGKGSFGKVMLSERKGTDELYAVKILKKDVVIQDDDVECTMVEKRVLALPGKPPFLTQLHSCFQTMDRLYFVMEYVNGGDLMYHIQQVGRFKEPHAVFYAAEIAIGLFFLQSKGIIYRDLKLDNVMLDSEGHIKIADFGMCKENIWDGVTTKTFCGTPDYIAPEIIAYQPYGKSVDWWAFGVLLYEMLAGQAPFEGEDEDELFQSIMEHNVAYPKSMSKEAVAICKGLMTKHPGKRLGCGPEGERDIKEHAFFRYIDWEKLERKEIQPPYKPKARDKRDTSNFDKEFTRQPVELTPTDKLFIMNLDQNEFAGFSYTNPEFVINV
# T5 sequence (P49137 whole entry): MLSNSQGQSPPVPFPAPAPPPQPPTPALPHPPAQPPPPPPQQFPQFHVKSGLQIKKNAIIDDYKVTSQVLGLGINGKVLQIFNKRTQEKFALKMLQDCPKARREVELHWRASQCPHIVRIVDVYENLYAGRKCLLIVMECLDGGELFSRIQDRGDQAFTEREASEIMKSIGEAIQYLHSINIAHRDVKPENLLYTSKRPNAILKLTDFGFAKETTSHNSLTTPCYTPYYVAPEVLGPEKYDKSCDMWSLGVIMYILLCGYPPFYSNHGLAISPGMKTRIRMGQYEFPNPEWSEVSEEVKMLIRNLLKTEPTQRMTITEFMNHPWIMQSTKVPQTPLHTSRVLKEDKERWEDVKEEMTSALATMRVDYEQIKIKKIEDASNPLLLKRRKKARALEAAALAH
Compound,inhibition at 0.1 µM [1],inhibition at 1 µM [1],inhibition at 0.1 µM [2],inhibition at 1 µM [2],inhibition at 0.1 µM [3],inhibition at 1 µM [3],inhibition at 0.1 µM [4],inhibition at 1 µM [4],inhibition at 0.1 µM [5],inhibition at 1 µM [5],inhibition at 0.1 µM [6],inhibition at 1 µM [6],inhibition at 0.1 µM [7],inhibition at 1 µM [7],inhibition at 0.1 µM [8],inhibition at 1 µM [8],inhibition at 0.1 µM [9],inhibition at 1 µM [9]
"COc1cc(-c2cc(-c3cccc(O)c3)cnc2N)cc(OC)c1OC [K02288, 3-[6-amino-5-(3,4,5-trimethoxy-phenyl)-pyridin-3-yl]-phenol]",-6%,4.3%,-2%,1.3%,-1%,-1%,0%,0%,-2%,-1%,2.3%,5.9%,-1%,0.7%,0.8%,2.2%,1%,3%
c1ccc2c(-c3cnn4cc(-c5ccc(N6CCNCC6)cc5)cnc34)ccnc2c1 [LDN-193189],2.2%,6.3%,0.3%,1.4%,1.9%,2.2%,2%,0.5%,0.7%,0%,2%,-1%,-2%,0.2%,1.2%,5.4%,2%,16%
